The record followed here is patent US7842802B2, “Vinorelbine derivatives” (priority 2003, dated 2010).

Structures are written as SMILES. Like-named read-outs stand apart in the source and are kept apart here.

In test [1] the test system is HeLa S-3 human cervical carcinoma cell line. Put plainly: HeLa GI50 determination (SRB). The format is cell-based. Conditions: Homo sapiens, HeLa S3, 48 h, read-out: HeLa Cells GI50. The procedure:
Growth inhibition (GI50) values were measured on the human cervical carcinoma cell line, HeLa S-3, which were selected for growth on plastic. The HeLa cell assay was based on the description of Skehan et al., J. Natl. Cancer Inst., 82:1107-12 (1990), which is hereby incorporated by reference in its entirety. HeLa cells were plated at 2×10^4 cells/well in 96 well plates. One day later, a control plate was fixed by the addition of TCA to 5%. After five rinses with tap water, the plate was air-dried and stored at 4° C. Test compounds were added to the remaining plates at 10-fold dilutions. Two days later, all plates were fixed as described above. Cells were then stained by the addition of 100 μL per well of 0.4% sulforhodamine B (SRB) in 1% acetic acid for 30 min at 4° C. Wells were then quickly rinsed 5× with 1% acetic acid and allowed to air dry. The SRB was then solubilized by the addition of 100 μL per well of unbuffered 10 mM Tris base. Dye was quantified by measuring absorbance at 490 nm on a Molecular Devices microplate reader. Growth inhibition was calculated according to the following equation: GI=100×(T−T0)/(C−T0), where the optical density (OD) of the test well after 2 days of treatment was T, the OD of the wells in the control plate on day 0 was T0 and C was the OD of untreated wells. Plots of percent growth inhibition versus inhibitor concentration were used to determine the GI50.

In test [2] the test system is MCF-7 human breast carcinoma line. Put plainly: MCF-7 GI50 determination (crystal violet). As to conditions: Homo sapiens, MCF7, 96 h, read-out: MCF-7 Cells GI50. Format: cell-based. Here is the method:
Growth inhibition (GI50) values were measured on the human breast carcinoma line, MCF-7. MCF-7 cells were plated at 2×10^4 cells/well in 96 well plates and grown for 24 hours in drug free media. On day 2, test compounds were added to the plates at 10-fold dilutions. Four days later, cells were fixed by the addition of glutaraldehyde to 0.75%. After 30 min, the fixed cells were extensively rinsed with distilled water and dried at room temperature for one hour. The cells were then stained with a 0.2% crystal violet solution for one hour at room temperature. Unbound stain was removed by ten rinses with tap water and plates were allowed to air dry for 30 min. The crystal violet was then solubilized by the addition of 10% acetic acid for 15 min and quantified by measuring absorbance at 570 nm on a Molecular Devices microplate reader. Growth inhibition was calculated according to the following equation: GI=[…], where the optical density (OD) of the test well after 4 days of treatment was T, the OD of the wells in the control plate on day 0 was T0. Plots of percent growth inhibition versus inhibitor concentration were used to determine the GI50.

The mark [3] stands for this setting: HeLa S-3, 2 days of treatment, SRB.
Setting [4] is: MCF-7, 4 days of treatment, crystal violet.

`CCC1=C[C@H]2CN(C1)Cc1c([nH]c3ccc(C#CCC(C)C)cc13)[C@@](C(=O)OC)(c1cc3c(cc1OC)N(C)[C@H]1[C@@](O)(C(=O)OC)[C@H](OC(C)=O)C4C(CC)=CCN5CC[C@]31[C@H]45)C2` (some centres unmarked) [Example 23, 11′-(4-methylpentynyl) vinorelbine]: the GI50 in test [1] (setting [3]) and in test [2] (setting [4]) was 300 nM each time.

Take `CCC1=C[C@H]2CN(C1)Cc1c([nH]c3ccc(SCCO)cc13)[C@@](C(=O)OC)(c1cc3c(cc1OC)N(C)[C@H]1[C@@](O)(C(=O)OC)[C@H](OC(C)=O)C4C(CC)=CCN5CC[C@]31[C@H]45)C2` (some centres unmarked) [Example 14, 11′-(2-hydroxyethylsulfanyl)vinorelbine]: the 50% growth inhibitory concentration (GI50) (commonly the concentration that inhibits growth by half) in test [1] (setting [3]) was determined as 30 nM; in test [2] (setting [4]), 50 nM.

As for `CCC1=C[C@H]2CN(C1)Cc1c([nH]c3ccc([S+]([O-])CCO)cc13)[C@@](C(=O)OC)(c1cc3c(cc1OC)N(C)[C@H]1[C@@](O)(C(=O)OC)[C@H](OC(C)=O)C4C(CC)=CCN5CC[C@]31[C@H]45)C2` (some centres unmarked) [Example 19, 11′-(3-hydroxyethylsulfinyl)vinorelbine], the figures for the GI50 in test [1] (setting [3]) and in test [2] (setting [4]) were 300 nM and > 1000 nM, respectively.

Turning to `CCC1=C[C@H]2CN(C1)Cc1c([nH]c3ccc(C(=O)OCC(Cl)Cl)cc13)[C@@](C(=O)OC)(c1cc3c(cc1OC)N(C)[C@H]1[C@@](O)(C(=O)OC)[C@H](OC(C)=O)C4C(CC)=CCN5CC[C@]31[C@H]45)C2` (some centres unmarked) [Example 29, 11′-(2,2-dichloroethoxycarbonyl)vinorelbine], the results for the concentration for 50% growth inhibition (GI50) in test [1] (setting [3]) and in test [2] (setting [4]) were 70 nM and 300 nM, respectively.

Regarding `CCSc1ccc2[nH]c3c(c2c1)CN1CC(CC)=C[C@@H](C1)C[C@]3(C(=O)OC)c1cc2c(cc1OC)N(C)[C@H]1[C@@](O)(C(=O)OC)[C@H](OC(C)=O)C3C(CC)=CCN4CC[C@]21[C@H]34` (some centres unmarked) [Example 11, 11′-(ethylsulfanyl) vinorelbine], the GI50 in test [1] (setting [3]) was found to be 5 nM; in test [2] (setting [4]), 20 nM.

On to `CCC1=C[C@H]2CN(C1)Cc1c([nH]c3ccc(SC)cc13)[C@@](C(=O)OC)(c1cc3c(cc1OC)N(C)[C@H]1[C@@](O)(C(=O)OC)[C@H](OC(C)=O)C4C(CC)=CCN5CC[C@]31[C@H]45)C2` (some centres unmarked) [Example 10, 11′-(methylsulfanyl) vinorelbine], for which the GI50 amounted to 0.3 nM in test [1] (setting [3]) and 1 nM in test [2] (setting [4]).

With `CCC1=C[C@H]2CN(C1)Cc1c([nH]c3ccc(/C=C/C(=O)OC(C)(C)C)cc13)[C@@](C(=O)OC)(c1cc3c(cc1OC)N(C)[C@H]1[C@@](O)(C(=O)OC)[C@H](OC(C)=O)C4C(CC)=CCN5CC[C@]31[C@H]45)C2` (some centres unmarked) [Example 5, 11′-(2-tert-butoxycarbonylvinyl) vinorelbine], the GI50 in test [1] amounted to 300 nM; in test [2] it was 600 nM.

As to `CCC1=C[C@H]2CN(C1)Cc1c([nH]c3ccc(C(C)=O)cc13)[C@@](C(=O)OC)(c1cc3c(cc1OC)N(C)[C@H]1[C@@](O)(C(=O)OC)[C@H](OC(C)=O)C4C(CC)=CCN5CC[C@]31[C@H]45)C2` (some centres unmarked) [Example 26, 11′-acetylvinorelbine], the 50% growth inhibitory concentration (GI50) in test [1] (setting [3]) was 4 nM; in test [2] (setting [4]), 20 nM.

Regarding `CCC1=C[C@H]2CN(C1)Cc1c([nH]c3ccc(SCc4ccccc4Cl)cc13)[C@@](C(=O)OC)(c1cc3c(cc1OC)N(C)[C@H]1[C@@](O)(C(=O)OC)[C@H](OC(C)=O)C4C(CC)=CCN5CC[C@]31[C@H]45)C2` (some centres unmarked) [Example 16, 11′-(2-chlorobenzylsulfanyl)vinorelbine], the GI50 in test [1] (setting [3]) was 300 nM; in test [2] (setting [4]), 500 nM.

With `C#Cc1ccc2[nH]c3c(c2c1)CN1CC(CC)=C[C@@H](C1)C[C@]3(C(=O)OC)c1cc2c(cc1OC)N(C)[C@H]1[C@@](O)(C(=O)OC)[C@H](OC(C)=O)C3C(CC)=CCN4CC[C@]21[C@H]34` (some centres unmarked) [Example 21, 11′-ethynylvinorelbine], the GI50 amounted to 0.4 nM in test [1] (setting [3]) and 5 nM in test [2] (setting [4]).
